Experimental data taken from patent US7491825B2, “Basic non-peptide bradykinin antagonists and pharmaceutical compositions therefrom” (Menarini Ricerche S.p.A., priority 2002, dated 2009).
Structures can show the parent of a compound that is named as a salt.

Target: T1, human B2 receptor (Homo sapiens, UniProt P30411)
T1 construct: human B2 receptor expressed in human fibroblasts W138; endogenous in cells; host or cells: human fibroblasts W138 (WI-38)
T1 sequence (P30411 1-391): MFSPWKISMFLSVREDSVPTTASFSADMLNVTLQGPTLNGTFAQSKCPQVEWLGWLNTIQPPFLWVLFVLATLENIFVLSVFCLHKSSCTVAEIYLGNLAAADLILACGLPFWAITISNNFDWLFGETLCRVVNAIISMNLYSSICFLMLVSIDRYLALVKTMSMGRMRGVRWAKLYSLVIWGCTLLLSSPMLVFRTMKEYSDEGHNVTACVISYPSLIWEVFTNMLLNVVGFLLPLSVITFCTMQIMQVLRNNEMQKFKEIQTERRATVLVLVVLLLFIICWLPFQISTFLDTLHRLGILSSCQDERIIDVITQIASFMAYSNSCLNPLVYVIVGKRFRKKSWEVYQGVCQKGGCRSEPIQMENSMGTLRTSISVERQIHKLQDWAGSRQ
Test: binding to the human B2 receptor expressed in human fibroblasts W138
From the text: In the following the binding values are reported expressed as pKi.

| Ki [nM] | Compound | pKi (human B2 receptor expressed in human fibroblasts W138) |
| --- | --- | --- |
| 0.631 | CC[C@@](C)(NS(=O)(=O)c1ccc(Cl)c(COc2cccc3c(C)cc(C)nc23)c1Cl)C(=O)N1CCN(C(=O)C[C@@H](N)CCCNC(=N)N)CC1 [Example 70, (R)—N-[4-(3-(S)-Amino-6-guanidino-hexanoyl)-piperazine-1-carbonyl]-1-methyl-propyl]-2,4-dichloro-3-(2,4-dimethyl-quinolin-8-yloxymethyl)-benzenesulfonamide tris trifluoroacetate] |  |
|  | Cc1cc(C)c2cccc(OCc3c(Cl)ccc(S(=O)(=O)N[C@H](C)C(C)C(=O)N4CCN(C(=O)CN5CCN(CCNC(=N)N)CC5)CC4)c3Cl)c2n1.O=C(O)C(F)(F)F.O=C(O)C(F)(F)F.O=C(O)C(F)(F)F.O=C(O)C(F)(F)F (some centres unmarked) [Example 71] | 9.4 |
